Experimental data reported in PubChem BioAssay AID2060487 (Molecular Pharmacology Branch, DTP, NCI, 2025).
“And” between values parts separate entries of the source, which are not always exact repeats. Equal values may be shown once.

Tested on: 997537-175-T-J1-PDC complex spheroid viability
Assay: Anticancer human tumor 997537-175-T-J1-PDC patient-derived colon adenocarcinoma cell line growth inhibition [GQUAD]
Conditions: for viability, T/C: stronger effect = lower value
Text: DNA G-quadruplex Stabilizer Agents in Combinations in Complex Spheroids
A high-throughput screen of multi-cell type tumor spheroids was designed to identify active combinations of DNA G-quadruplex stabilizer agents and targeted small molecules. Complex spheroids include a stromal component modeled by human endothelial cells (HUVEC) and fibroblasts modeled by human mesenchymal stem cells (MSCs). The concentration ranges selected for each drug and investigational agent were based upon clinically achievable concentrations if the clinical Cmax of the agent was known.
Compounds. The drugs and investigational agents: pidnarulex (CX-5461; NSC782164), APTO-253 (NSC789042), BRACO-19 (NSC847499), peposertib (NSC802822), ceralasertib (NSC780249), elimusertib (NSC800525), camonsertib (NSC841442), AZD-1390 (NSC803789), olaparib (NSC753686), talazoparib (NSC767125), ART-558 (NSC835418), sotorasib (NSC818433), MRTX-1133 (NSC836407), SN-38 (NSC673596), topotecan (NSC609699), etoposide (NSC141540), doxorubicin (NSC123127), gemcitabine (NSC613327), 5-fluorouracil (NSC19893), paclitaxel (NSC125973), vemurafenib (NSC761431), panobinostat (NSC761190), R-306465 (JNJ-16241199; NSC773264), adavosertib (NSC754352), TP-3654 (NSC805149), carboplatin (NSC241240), KSQ-4279 (NSC840948), and staurosporine (NSC755774) were obtained from the National Cancer Institute (NCI) Developmental Therapeutics Program Chemical Repository (34). The FDA-approved anticancer drug set is available from the NCI Developmental Therapeutics Program. […] The stock solutions were prepared in dimethyl sulfoxide (DMSO, Sigma-Aldrich, St. Louis, MO, cat. D2650) at 800-fold the tested concentration and stored at -70 degrees C prior to their use. All drugs and investigational agents were tested over a range starting from a high concentration at or near the clinical Cmax and decreasing in half-log increments. If the clinical Cmax for an agent had not been determined, the highest concentration tested was 10 microM.
2.3 Cell Culture. All cells were maintained in an incubator at 37 degrees C and 5% CO2 with 95% humidity. The PDC lines were cultured according to standard operating procedures established by the NCI PDMR. All PDCs were thawed and cultured in Matrigel-coated flasks prepared with a working solution of 1X Ham's F-12 nutrient mix, without supplementation (Invitrogen, cat. 11765054), 100 U/mL penicillin-streptomycin (Invitrogen, cat. 15140122), and 2.5% Matrigel (Corning Inc., cat. 354248) for the first three passages. The 857933-349-R-J2-PDC line was cultured in 6C/Colon 1B media, which includes advanced DMEM/F-12 (Thermo Fisher Scientific, cat. 12634028), 10 mM HEPES (Thermo Fisher Scientific, cat. 15630080), 1X GlutaMAX supplement (Thermo Fisher Scientific, cat. 35050061), 0.1 mg/mL primocin (InvivoGen, cat. ant-pm-2), 10% defined fetal bovine serum, heat inactivated (HyClone Laboratories Inc., cat. SH30070.03HI), 50% L-WRN conditioned media (ATCC, cat. CRL-3276), 1.25 mM N-Acetyl-L-cysteine (Sigma-Aldrich, cat. A9165), 10 mM nicotinamide (Sigma-Aldrich, cat. N0636), 1X B-27 supplement (Thermo Fisher Scientific, cat. 17504044), 1X N-2 supplement (Thermo Fisher Scientific, cat. 17502048), 10 microM Y-27632 dihydrochloride (Tocris Bioscience, cat. 1254), and 50 ng/mL human EGF recombinant protein (Thermo Fisher Scientific, cat. PHG0311). The 485176-168-R4-J1-PDC line was cultured in Panc media, which includes all 6C/Colon 1B media components plus 100 ng/mL human FGF-10 (Thermo Fisher Scientific, cat. 100-26), 500 nM SB-431542 (Selleckchem, cat. S1067), and gastrin (Tocris, cat. 3006).
[…]
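Further: spheroids exposed to the agents for 7 days.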
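Wherever viability, T/C is given: 100% = DMSO vehicle control viability.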

Compound: O=c1[nH]cc(F)c(=O)[nH]1
- viability, T/C (compound 0.0316 µM): 108% and 85.2% and 99.8%
- viability, T/C (compound 0.1 µM): 104% and 108% and 86.2%
- viability, T/C (compound 0.316 µM): 96.1% and 89% and 98.1%
- viability, T/C (compound 1 µM): 95.1% and 85.5% and 92.2%
- viability, T/C (compound 3.16 µM): 101% and 70.3% and 82.5%
- viability, T/C (compound 10 µM): 83.9% and 87.2% and 93.6%
- IC50 (curve of compound): > 10 µM

Compound: CC1COCCN1c1cc(C2(S(C)(=N)=O)CC2)nc(-c2ccnc3[nH]ccc23)n1 (stereo not drawn) + Cc1cnc(CNC(=O)c2c(=O)c3ccc(N4CCCN(C)CC4)nc3n3c2sc2ccccc23)cn1
- IC50 (curve of first compound, second compound 0.0316 µM): 3.67 µM
- IC50 (curve of first compound, second compound 0.1 µM): 8.64 µM
- IC50 (curve of first compound, second compound 0.316 µM): > 10 µM
- IC50 (curve of first compound, second compound 1 µM): > 10 µM
- IC50 (curve of first compound, second compound 3.16 µM): > 10 µM
- IC50 (curve of first compound, second compound 10 µM): > 10 µM
- viability, T/C (second compound 0.0316 µM, first compound 0.0316 µM): 105%
- viability, T/C (second compound 0.0316 µM, first compound 0.1 µM): 88.9%
- viability, T/C (second compound 0.0316 µM, first compound 0.316 µM): 84.8%
- viability, T/C (second compound 0.0316 µM, first compound 1 µM): 56.8%
- viability, T/C (second compound 0.0316 µM, first compound 3.16 µM): 54.9%
- viability, T/C (second compound 0.0316 µM, first compound 10 µM): 41.7%
- viability, T/C (second compound 0.1 µM, first compound 0.0316 µM): 91.4%
- viability, T/C (second compound 0.1 µM, first compound 0.1 µM): 90.4%
- viability, T/C (second compound 0.1 µM, first compound 0.316 µM): 83.9%
- viability, T/C (second compound 0.1 µM, first compound 1 µM): 65.9%
- viability, T/C (second compound 0.1 µM, first compound 3.16 µM): 72.3%
- viability, T/C (second compound 0.1 µM, first compound 10 µM): 45.2%
- viability, T/C (second compound 0.316 µM, first compound 0.0316 µM): 89.5%
- viability, T/C (second compound 0.316 µM, first compound 0.1 µM): 92.8%
- viability, T/C (second compound 0.316 µM, first compound 0.316 µM): 80.6%
- viability, T/C (second compound 0.316 µM, first compound 1 µM): 60.3%
- viability, T/C (second compound 0.316 µM, first compound 3.16 µM): 55.4%
- viability, T/C (second compound 0.316 µM, first compound 10 µM): 53.4%
- viability, T/C (second compound 1 µM, first compound 0.0316 µM): 86.7%
- viability, T/C (second compound 1 µM, first compound 0.1 µM): 82.5%
- viability, T/C (second compound 1 µM, first compound 0.316 µM): 69.6%
- viability, T/C (second compound 1 µM, first compound 1 µM): 65.8%
- viability, T/C (second compound 1 µM, first compound 3.16 µM): 84.7%
- viability, T/C (second compound 1 µM, first compound 10 µM): 83.7%
- viability, T/C (second compound 3.16 µM, first compound 0.0316 µM): 65.4%
- viability, T/C (second compound 3.16 µM, first compound 0.1 µM): 83.7%
- viability, T/C (second compound 3.16 µM, first compound 0.316 µM): 104%
- viability, T/C (second compound 3.16 µM, first compound 1 µM): 78.2%
- viability, T/C (second compound 3.16 µM, first compound 3.16 µM): 59.3%
- viability, T/C (second compound 3.16 µM, first compound 10 µM): 69%
- viability, T/C (second compound 10 µM, first compound 0.0316 µM): 74.8%
- viability, T/C (second compound 10 µM, first compound 0.1 µM): 71.4%
- viability, T/C (second compound 10 µM, first compound 0.316 µM): 91.8%
- viability, T/C (second compound 10 µM, first compound 1 µM): 68.3%
- viability, T/C (second compound 10 µM, first compound 3.16 µM): 85.4%
- viability, T/C (second compound 10 µM, first compound 10 µM): 85.8%

Compound: COc1cc(C2c3cc4c(cc3C(OC3OC5COC(C)OC5C(O)C3O)C3COC(=O)C23)OCO4)cc(OC)c1O (stereo not drawn)
- viability, T/C (compound 0.0316 µM): 109% and 95.5% and 112%
- viability, T/C (compound 0.1 µM): 89.4% and 75.1% and 76.9%
- viability, T/C (compound 0.316 µM): 77.2% and 92.8% and 91.9%
- viability, T/C (compound 1 µM): 93.1% and 76.8% and 89%
- viability, T/C (compound 3.16 µM): 82.3% and 81.8% and 82.2%
- viability, T/C (compound 10 µM): 60.9% and 54.7% and 74.6%
- IC50 (curve of compound): > 10 µM

Compound: O=C(NO)c1cnc(N2CCN(S(=O)(=O)c3ccc4ccccc4c3)CC2)nc1
- viability, T/C (compound 0.0316 µM): 65.3% and 97.2% and 113%
- viability, T/C (compound 0.1 µM): 24.7% and 95.1% and 86.5%
- viability, T/C (compound 0.316 µM): 47.4% and 101% and 105%
- viability, T/C (compound 1 µM): 41.2% and 82% and 69%
- viability, T/C (compound 3.16 µM): 42.8% and 22.4% and 27.3%
- viability, T/C (compound 10 µM): 23.3% and 0.34% and 0.28%

Compound: Cc1cnc(CNC(=O)c2c(=O)c3ccc(N4CCCN(C)CC4)nc3n3c2sc2ccccc23)cn1
- viability, T/C (compound 0.1 µM): 95.7% [middle of 12 runs]
- viability, T/C (compound 0.316 µM): 96.5% [middle of 12 runs]
- viability, T/C (compound 1 µM): 103% [middle of 12 runs]
- viability, T/C (compound 10 µM): 91.5% [middle of 12 runs]
- IC50 (compound alone, run of 04/16/2024): > 10 µM

Compound: O=C(c1cc(Cc2n[nH]c(=O)c3ccccc23)ccc1F)N1CCN(C(=O)C2CC2)CC1
- viability, T/C (compound 0.0316 µM): 106% and 94.3% and 90.2%
- viability, T/C (compound 0.1 µM): 88% and 96.7% and 102%
- viability, T/C (compound 0.316 µM): 94.6% and 102% and 107%
- viability, T/C (compound 1 µM): 104% and 92.4% and 103%
- viability, T/C (compound 3.16 µM): 102% and 64.4% and 79.6%
- viability, T/C (compound 10 µM): 85.2% and 87.2% and 96.7%
- IC50 (curve of compound): > 10 µM

Compound: COc1cccc2c1C(=O)c1c(O)c3c(c(O)c1C2=O)CC(O)(C(=O)CO)CC3OC1CC(N)C(O)C(C)O1 (stereo not drawn)
- viability, T/C (compound 0.0316 µM): 98.9% and 107% and 104%
- viability, T/C (compound 0.1 µM): 95.5% and 101% and 75.2%
- viability, T/C (compound 0.316 µM): 92.8% and 91.6% and 89.9%
- viability, T/C (compound 1 µM): 99.9% and 88.3% and 107%
- viability, T/C (compound 3.16 µM): 76.1% and 72.2% and 74.3%
- viability, T/C (compound 10 µM): 51.4% and 40.7% and 23.7%
- IC50 (curve of compound): > 10 µM and 7.16 µM and 5.5 µM

Compound: COc1ccc([C@@H](O)c2cc(-c3ncnc4cc(N5CCOCC5)ccc34)c(F)cc2Cl)nn1
- viability, T/C (compound 0.0316 µM): 92.9% and 91.3% and 86%
- viability, T/C (compound 0.1 µM): 90.2% and 89.7% and 104%
- viability, T/C (compound 0.316 µM): 94.4% and 88.5% and 89.3%
- viability, T/C (compound 1 µM): 101% and 83.3% and 91.5%
- viability, T/C (compound 3.16 µM): 82.6% and 73.8% and 58.5%
- viability, T/C (compound 10 µM): 65.1% and 78.9% and 67.7%
- IC50 (curve of compound): > 10 µM
